Data: patent publication US20220211691A1, “TREATMENT OF DRY EYE DISEASE” (Aldeyra Therapeutics, Inc., priority 2021, published 2022)

How the values were obtained:
Assay type in all cases: in vivo, human
[1] = tested on: malondialdehyde (MDA) adducts in tears; experiment: MDA adduct competitive ELISA of tears, Phase 2a clinical study; conditions: 28 days / 4-week treatment, all treatment groups pooled
Description: The study was to assess levels of malondialdehyde (MDA) adducts in tears collected from subjects with dry eye disease enrolled in a Phase 2a, randomized, double-masked, clinical study to assess the safety, tolerability, and pharmacodynamic activity of ADX-102 ophthalmic solution in subjects with dry eye diseases, also referred to herein as dry eye syndrome (DES).
Tears were collected during Visit 1, prior to treatment, and during Visit 3, following four weeks of treatment. Treatment groups consisted of ADX-102 Ophthalmic Solution (0.5%), ADX-102 Ophthalmic Solution (0.1%), and ADX-102 Ophthalmic Lipid Solution (0.5%). […]
The assay is a competitive ELISA. […] The plate is read in a microplate reader at 450 nm. The assay OD reading decreases with increasing MDA adducts in the samples, as the adsorbed MDA competes for binding to the MDA antibody with MDA adducts in the test sample. […]
DES Study Samples. Based on the results of the pilot assay, a 1:60 dilution was determined to maximize the likelihood of the OD values falling within the linear portion of the standard curve, and thus provide the most accurate results. All tear samples from subjects (0.5% ADX-102 Ophthalmic Solution) and (0.1% ADX-102 Ophthalmic Solution) were analyzed, but results from some tear samples were excluded from the data analysis due to contamination with ocular staining dye in the Visit 3 samples. […]

[2] = tested on: subjects with dry eye disease; experiment: CAE clinical study, initial cohort, Day 1 dry eye assessments; conditions: N = 12; for Schirmer's Test, Change From Baseline: Day 1, after a single dose, vehicle +1.3, P-Value 0.30; for OD4S: Dryness (0-5), Change From Baseline / OD4S: Grittiness (0-5), Change From Baseline: vehicle +0.1, P-Value 0.006; for OD4S: Discomfort (0-5), Change From Baseline / VAS Dryness (0-100), Change From Baseline: P-Value 0.003; for VAS Dryness (0-100), Change From Baseline: vehicle +2
Procedure: The objective of the study is to evaluate the efficacy of reproxalap, as assessed by tear reactive aldehyde species (RASP) levels, after single and multiple doses in subjects with dry eye disease. The efficacy of reproxalap will also be assessed by tear RASP levels, conjunctival redness, Schirmer's Test, and dry eye symptoms after dosing immediately prior to and during exposure to the Controlled Adverse Environment (CAE®) over 2 hours, in subjects with dry eye disease. CAE® chambers allow standardization of variables, such as temperature, humidity, airflow, and visual tasking (see Calonge et al., Current Eye Res., 2018, 43(4):445-450; see also Ousler, III et al., Ophthalmol Ther., 2017, 6(2): 263-276) Dosage/Dose Regimen. A Reproxalap solution (0.25% w/v or 0.1% w/v) is administered topically to both eyes. The control is a Vehicle Control Solution. The test article is administered QID on Day 1 (Visit 2). On Day 2 (Visit 3), test article is administered once 2 or 5 minutes immediately prior to the CAE®, once 45 minutes after initiation of the CAE®, and once at CAE® exit. The primary endpoint is the change in levels of reactive aldehyde species (RASP) in tears. Secondary endpoints include the following: • Visual analog scale eye dryness score assessed over 90 minutes in CAE®. • Ora Calibra Ocular Discomfort Scale assessed over 90 minutes in CAE®. • Conjunctival redness assessed at over 90 minutes via digital photography in the CAE® (Key Secondary Sign Endpoint). • Schirmer's Test assessed 10 minutes after dosing. • Post-CAE® RASP change from baseline. General Statistical Methods and Types of Analyses. The primary endpoint and secondary endpoints of Schirmer's Test and post-CAE® RASP is assessed via analysis of covariance (ANCOVA), with baseline score as a covariate. Initial Cohort of the trial will enroll twenty subject who meet the inclusion criteria. The Initial Cohort phase will be limited to Visit 1 (Screening), Visit 2 (Day 1), and Visit 3 (Day 2). At Day 1, evaluations include Dry Eye symptoms, Schirmer's test, and tear RASP levels. At Day 2 (Chamber test), evaluations include Dry Eye symptoms, Ocular Redness, and tear RASP levels. • Day 1 Schirmer's Test results is based on improvement after a single dose; all other Day 1 assessments were performed over 24 hours of QID dosing.

[3] = Safety of topical ocular reproxalap across clinical trials
Procedure: • Day 1 Schirmer's Test results is based on improvement after a single dose; all other Day 1 assessments were performed over 24 hours of QID dosing.

[4] = tested on: subjects with dry eye disease; experiment: CAE clinical study, initial cohort, Day 2 dry eye chamber
Procedure: The objective of the study is to evaluate the efficacy of reproxalap, as assessed by tear reactive aldehyde species (RASP) levels, after single and multiple doses in subjects with dry eye disease. The efficacy of reproxalap will also be assessed by tear RASP levels, conjunctival redness, Schirmer's Test, and dry eye symptoms after dosing immediately prior to and during exposure to the Controlled Adverse Environment (CAE®) over 2 hours, in subjects with dry eye disease. CAE® chambers allow standardization of variables, such as temperature, humidity, airflow, and visual tasking (see Calonge et al., Current Eye Res., 2018, 43(4):445-450; see also Ousler, III et al., Ophthalmol Ther., 2017, 6(2): 263-276) Dosage/Dose Regimen. A Reproxalap solution (0.25% w/v or 0.1% w/v) is administered topically to both eyes. The control is a Vehicle Control Solution. The test article is administered QID on Day 1 (Visit 2). On Day 2 (Visit 3), test article is administered once 2 or 5 minutes immediately prior to the CAE®, once 45 minutes after initiation of the CAE®, and once at CAE® exit. The primary endpoint is the change in levels of reactive aldehyde species (RASP) in tears. Secondary endpoints include the following: • Visual analog scale eye dryness score assessed over 90 minutes in CAE®. • Ora Calibra Ocular Discomfort Scale assessed over 90 minutes in CAE®. • Conjunctival redness assessed at over 90 minutes via digital photography in the CAE® (Key Secondary Sign Endpoint). • Schirmer's Test assessed 10 minutes after dosing. • Post-CAE® RASP change from baseline. Secondary endpoints of conjunctival redness and symptoms in the CAE® is assessed via mixed effect model for repeated measures (MMRM), with baseline score as a covariate, and time and test article group as factors. In one of the CAE® studies, one dose is given 2 min prior to chamber entry. Another dose is administered 45 min after chamber entry. In some instances, subjects receive one day prior to chamber entry. Thus, some subjects receive: one dose on day prior to, one dose immediately before, and one dose 45 min after entry into a 90 min dry eye chamber with minimal humidity, high airflow, and forced visual tasking. In some instances, the subjects are given a dose at exit of the CAE®.

[5] = Day 1, over 24 hours of QID dosing
[6] = Day 1, over 24 hours of QID dosing, listed as reproxalap

Q: For `CC(C)(O)c1nc2ccc(Cl)cc2cc1N` [Reproxalap, reproxalap], which “tear MDA adduct level after treatment relative to baseline, pooled groups” value [1] is on record?
A: statistically lower

Q: And the “Schirmer's Test, Change From Baseline” value [2]?
A: +3.4 mm

Q: What about the “Schirmer's Test, Change From Baseline” value ([2]; listed as reproxalap) of the same compound?
A: directionally in favor of reproxalap over vehicle

Q: And the “OD4S: Dryness (0-5), Change From Baseline” value [2, 5]?
A: −1.2

Q: What about the “OD4S: Grittiness (0-5), Change From Baseline” value [2, 5] of the same compound?
A: −1.1

Q: And the “OD4S: Dryness (0-5), Change From Baseline” value [2, 6]?
A: statistically superior to vehicle

Q: And the “OD4S: Grittiness (0-5), Change From Baseline” value [2, 6]?
A: statistically superior to vehicle

Q: What about the “OD4S: Discomfort (0-5), Change From Baseline” value ([2]; Day 1, over 24 hours of QID dosing, vehicle +0.4) of the same compound?
A: −0.7

Q: And the “OD4S: Discomfort (0-5), Change From Baseline” value ([2]; Day 1, over 24 hours of QID dosing, vehicle +0.4, listed as reproxalap)?
A: statistically superior to vehicle

Q: What about the “Ocular Discomfort Scale (0-4), Change From Baseline” value ([2]; Day 1, over 24 hours of QID dosing, vehicle +0.4, P-Value 0.07) of the same compound?
A: −0.7

Q: And the “OD4S: Sting (0-5), Change From Baseline” value ([2]; Day 1, over 24 hours of QID dosing, vehicle +0.4, P-Value 0.23)?
A: −0.1

Q: What about the “OD4S: Burn (0-5), Change From Baseline” value ([2]; Day 1, over 24 hours of QID dosing, vehicle +0.8, P-Value 0.07) of the same compound?
A: −0.1

Q: What about the “VAS Dryness (0-100), Change From Baseline” value [2, 5] of the same compound?
A: −26

Q: What about the “VAS Dryness (0-100), Change From Baseline” value [2, 6] of the same compound?
A: statistically superior to vehicle

Q: What about the “most commonly reported adverse event in clinical trials” value ([3]; human, in vivo) of the same compound?
A: mild instillation site irritation

Q: What about the “safety in clinical trials” value ([3]; studied in over 1,100 patients) of the same compound?
A: no observed safety concerns

Q: What about the “ocular redness versus vehicle” value ([4]; Day 2, dry eye chamber, p=0.03) of the same compound?
A: statistically significant improvement over vehicle

Q: What about the “ocular discomfort score versus vehicle” value ([4]; Day 2, over all time points in aggregate in the dry eye chamber, p<0.0001) of the same compound?
A: statistically superior to vehicle

Q: And the “visual analog scale (VAS) ocular dryness versus vehicle” value ([4]; Day 2, over all time points in aggregate in the dry eye chamber, p=0.001)?
A: statistically superior to vehicle

Q: And the “time to improvement in ocular symptoms and redness following dosing” value ([4]; dry eye chamber)?
A: within minutes
